According to patent publication US6518041B1, “Hormone response element that binds an androgen and progesterone receptor” (Schering Aktiengesellschaft, priority 1998, dated 2003):

Experiments:
[1] = target: T1, androgen receptor (Homo sapiens, UniProt P10275); experiment: consensus-HRE (ARE) luciferase reporter test system in PC-3/AR cells; assay type: cell-based
T1 construct: expressed in transfected cells; host or cells: PC-3 cells stably transformed with an androgen receptor expression vector (PC-3/AR)
T1 sequence (P10275 1-920): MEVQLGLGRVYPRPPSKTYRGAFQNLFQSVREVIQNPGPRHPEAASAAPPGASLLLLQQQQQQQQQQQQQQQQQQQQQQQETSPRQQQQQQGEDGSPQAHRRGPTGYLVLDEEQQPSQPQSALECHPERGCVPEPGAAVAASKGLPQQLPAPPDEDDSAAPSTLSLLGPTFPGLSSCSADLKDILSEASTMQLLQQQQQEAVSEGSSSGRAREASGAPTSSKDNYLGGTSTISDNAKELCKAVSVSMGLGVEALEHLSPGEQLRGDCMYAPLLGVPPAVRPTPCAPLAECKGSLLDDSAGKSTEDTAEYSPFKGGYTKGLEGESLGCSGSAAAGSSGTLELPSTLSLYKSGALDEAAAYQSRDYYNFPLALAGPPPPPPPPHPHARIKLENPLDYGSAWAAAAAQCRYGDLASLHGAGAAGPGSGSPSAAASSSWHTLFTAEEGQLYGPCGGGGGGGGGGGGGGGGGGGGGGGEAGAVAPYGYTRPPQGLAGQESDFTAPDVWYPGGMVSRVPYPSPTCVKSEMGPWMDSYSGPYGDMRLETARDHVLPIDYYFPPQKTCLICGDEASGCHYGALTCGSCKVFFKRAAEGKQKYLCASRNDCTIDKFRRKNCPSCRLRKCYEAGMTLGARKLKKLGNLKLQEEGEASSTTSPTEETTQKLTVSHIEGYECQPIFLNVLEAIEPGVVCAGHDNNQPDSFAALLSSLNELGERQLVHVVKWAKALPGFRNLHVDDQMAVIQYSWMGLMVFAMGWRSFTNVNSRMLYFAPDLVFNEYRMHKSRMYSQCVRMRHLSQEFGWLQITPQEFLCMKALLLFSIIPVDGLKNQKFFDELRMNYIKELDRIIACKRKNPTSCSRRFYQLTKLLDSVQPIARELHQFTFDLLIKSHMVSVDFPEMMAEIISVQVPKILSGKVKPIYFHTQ
Excerpt: (§1) Test systems were compared that contained either an HRE according to the invention that corresponds to Seq. ID No. 1 (ARE17) or the consensus-HRE with the sequence (SEQ ID NO: 5) 5′-[…]-3′ (ARE). All other components were respectively the same. Copies of the ARE17 were introduced upstream from the TK minimal promoter and the luciferase gene in the pGL3-basic vector (FIG. 1). PC-3/AR cells, which already express the androgen receptor in a stable manner, were saturated in RPMI1640/10% cFS/L-glutamine for 18-24 hours and then transformed for five hours with 100 ng of reporter plasmid and the Fu-gene transfection reagent (Boehringer Mannheim). Then, the medium was replaced by RPM1640/5% cFCS/L-glutamine, and the activity of the reporter gene measured 42 hours later.
(§2) Four copies of the elements were introduced upstream from the TK minimal promoter and the luciferase gene in the pGL3-basic vector (FIG. 1) and transformed in the PC-3/AR-cells, which already express the androgen receptor in a stable manner, as described above. The stimulation was carried out with the synthetic androgen R1881 (10^−9M or 10^−7M final concentration).

[2] = target: T1, androgen receptor; experiment: ARE17 luciferase reporter test system in PC-3/AR cells; assay type: cell-based
Excerpt: Preferred is the use of the luciferase reporter gene and of PC-3 cells that have been transformed in advance in a stable manner with an expression vector for the androgen receptor (PC-3/AR cells) or in a transient parallel manner. In addition, the use of the TK minimal promoter is preferred. […] A progestin is a synthetic progesterone analog.
as §1, §2

Compound | induction of the luciferase activity compared between ARE17, consensus-HRE and IDR17 ([1]; 4 copies of consensus-HRE, R1881 10^-9 M or 10^-7 M) | induction of the luciferase activity ([2]; 2 copies of ARE17, TK minimal promoter, PC-3/AR cells, androgen receptor expression vector) | induction of the luciferase activity compared between ARE17, consensus-HRE and IDR17 ([2]; 4 copies of ARE17, R1881 10^-9 M or 10^-7 M) | increase of the luciferase activity ([2]; 4 copies of ARE17, TK minimal promoter, PC-3/AR cells) | difference in stimulation between the two R1881 concentrations ([2]; 4 copies, 10^-9 M versus 10^-7 M final concentration) | induction of the luciferase activity (in words) ([2]; ARE17, R1881 10^-7 M, measured 42 hours later) | stimulation of the consensus-HRE in the absence of an androgen ([1]; 4 copies, no androgen) | stimulation of ARE17 in the absence of an androgen ([2]; 4 copies, no androgen)
C[C@]1(O)CC[C@H]2[C@@H]3CCC4=CC(=O)CCC4=C3C=C[C@@]21C [R1881] | weakest stimulation | 10.5 fold | strongest induction | 46 fold | No decisive difference | very strong induction | – | –
CC(C)(O)C(=O)Nc1ccc([N+](=O)[O-])c(C(F)(F)F)c1 [hydroxyflutamide] | – | – | – | – | – | – | stimulated neither | stimulated neither
